According to ChEMBL document CHEMBL4680149, “Biological evaluation and chemoproteomics reveal potential antibacterial targets of a cajaninstilbene-acid analogue” (Eur J Med Chem, 2020):
Active and inactive are the calls of the source. The rule behind the calls is not given here.

Legend:
Staphylococcus aureus [1] = test: Antibacterial activity against methicillin resistant Staphylococcus aureus ATCC 43300 persisters assessed as eradication of colony formation at 2X MIC incubated for 4 hrs by colony counting method; assay type: functional, organism-based
RAW264.7 = test: Cytotoxicity against mouse RAW264.7 cells assessed as reduction in cell viability incubated for 48 hrs by MTT assay; assay type: cell-based; conditions: RAW264.7, 48 h
Staphylococcus aureus [2] = test: Binding affinity to YidC in methicillin resistant Staphylococcus aureus ATCC 43300 assessed as protein labeling at 5 uM incubated for 1 hr followed by UV irradiation for 20 mins by pull down based in-gel fluorescence scanning analysis; conditions: time 80.0 min
Staphylococcus aureus [3] = test: Binding affinity to moaB in Staphylococcus aureus ATCC 25923 assessed as protein labeling at 5 uM incubated for 1 hr followed by UV irradiation for 20 mins by pull down based in-gel fluorescence scanning analysis; conditions: time 80.0 min
Staphylococcus aureus [4] = test: Binding affinity to modA in Staphylococcus aureus ATCC 25923 assessed as protein labeling at 5 uM incubated for 1 hr followed by UV irradiation for 20 mins by pull down based in-gel fluorescence scanning analysis; conditions: time 80.0 min
Staphylococcus aureus [5] = test: Binding affinity to moaB in methicillin resistant Staphylococcus aureus ATCC 43300 assessed as protein labeling at 5 uM incubated for 1 hr followed by UV irradiation for 20 mins by pull down based in-gel fluorescence scanning analysis; conditions: time 80.0 min
Staphylococcus aureus [6] = test: Binding affinity to PgsA in Staphylococcus aureus ATCC 25923 assessed as protein labeling at 5 uM incubated for 1 hr followed by UV irradiation for 20 mins by pull down based in-gel fluorescence scanning analysis; conditions: time 80.0 min
Staphylococcus aureus [7] = test: Binding affinity to CshA in methicillin resistant Staphylococcus aureus ATCC 43300 assessed as protein labeling at 5 uM incubated for 1 hr followed by UV irradiation for 20 mins by pull down based in-gel fluorescence scanning analysis; conditions: time 80.0 min
Staphylococcus aureus [8] = test: Binding affinity to HsIU/ClpY in methicillin resistant Staphylococcus aureus ATCC 43300 assessed as protein labeling at 5 uM incubated for 1 hr followed by UV irradiation for 20 mins by pull down based in-gel fluorescence scanning analysis; conditions: time 80.0 min
Staphylococcus aureus [9] = test: Binding affinity to rpsH in Staphylococcus aureus ATCC 25923 assessed as protein labeling at 5 uM incubated for 1 hr followed by UV irradiation for 20 mins by pull down based in-gel fluorescence scanning analysis; conditions: time 80.0 min
Staphylococcus aureus [10] = test: Bacteriostatic activity against Staphylococcus aureus ATCC 25923 assessed as reduction in bacterial growth at 128 ug/ml incubated for 16 hrs by Kirby-Bauer test method; assay type: functional, organism-based; conditions: dose 128.0 µg/ml
Staphylococcus aureus [11] = test: Binding affinity to YidC in Staphylococcus aureus ATCC 25923 assessed as protein labeling at 5 uM incubated for 1 hr followed by UV irradiation for 20 mins by pull down based in-gel fluorescence scanning analysis; conditions: time 80.0 min
Staphylococcus aureus [12] = test: Binding affinity to PgsA in methicillin resistant Staphylococcus aureus ATCC 43300 assessed as protein labeling at 5 uM incubated for 1 hr followed by UV irradiation for 20 mins by pull down based in-gel fluorescence scanning analysis; conditions: time 80.0 min
Staphylococcus aureus [13] = test: Binding affinity to rpsH in methicillin resistant Staphylococcus aureus ATCC 43300 assessed as protein labeling at 5 uM incubated for 1 hr followed by UV irradiation for 20 mins by pull down based in-gel fluorescence scanning analysis; conditions: time 80.0 min
Staphylococcus aureus [14] = test: Binding affinity to modA in methicillin resistant Staphylococcus aureus ATCC 43300 assessed as protein labeling at 5 uM incubated for 1 hr followed by UV irradiation for 20 mins by pull down based in-gel fluorescence scanning analysis; conditions: time 80.0 min
Staphylococcus aureus [15] = test: Binding affinity to HsIU/ClpY in Staphylococcus aureus ATCC 25923 assessed as protein labeling at 5 uM incubated for 1 hr followed by UV irradiation for 20 mins by pull down based in-gel fluorescence scanning analysis; conditions: time 80.0 min
Staphylococcus aureus [16] = test: Binding affinity to CshA in Staphylococcus aureus ATCC 25923 assessed as protein labeling at 5 uM incubated for 1 hr followed by UV irradiation for 20 mins by pull down based in-gel fluorescence scanning analysis; conditions: time 80.0 min
Staphylococcus aureus [17] = test: Antibacterial activity against methicillin resistant Staphylococcus aureus ATCC 43300 persisters assessed as reduction in colony formation at 40 ug/ml incubated for 8 hrs by colony counting method; assay type: functional, organism-based; conditions: dose 40.0 µg/ml
Staphylococcus aureus [18] = test: Resistance index, ratio of MIC for antibacterial activity against Staphylococcus aureus ATCC 25923 measured after 60 days of serial passage to MIC for antibacterial activity against Staphylococcus aureus ATCC25923 measured after 16 hrs; assay type: functional
Staphylococcus aureus [19] = test: Antibacterial activity against methicillin resistant Staphylococcus aureus ATCC 43300 persisters assessed as reduction in colony formation at 40 ug/ml incubated for 8 hrs in presence of 50 ug/ml Ca2+ by colony counting method; assay type: functional, organism-based; conditions: dose 40.0 µg/ml
Staphylococcus aureus [20] = test: Antibacterial activity against methicillin resistant Staphylococcus aureus ATCC 43300 persisters assessed as reduction in colony formation at 4 ug/ml incubated for 8 hrs by colony counting method; assay type: functional, organism-based; conditions: dose 4.0 µg/ml

COc1cc(/C=C/c2ccc(C(F)(F)F)cc2)c(C(=O)O)c(O)c1CC=C(C)C
Activity (Staphylococcus aureus [1]): Active | IC50 (RAW264.7): 50.6 µM

C#CCCC1(CCOc2ccccc2)N=N1
Activity (Staphylococcus aureus [2]): inactive | Activity (Staphylococcus aureus [3]): inactive | Activity (Staphylococcus aureus [4]): inactive | Activity (Staphylococcus aureus [5]): inactive | Activity (Staphylococcus aureus [6]): inactive | Activity (Staphylococcus aureus [7]): inactive | Activity (Staphylococcus aureus [8]): inactive | Activity (Staphylococcus aureus [9]): inactive | Activity (Staphylococcus aureus [10]): inactive | Activity (Staphylococcus aureus [11]): inactive | Activity (Staphylococcus aureus [12]): inactive | Activity (Staphylococcus aureus [13]): inactive | Activity (Staphylococcus aureus [14]): inactive | Activity (Staphylococcus aureus [15]): inactive | Activity (Staphylococcus aureus [16]): inactive

O=C(O)c1cn(C2CC2)c2cc(N3CCNCC3)c(F)cc2c1=O [CIPROFLOXACIN]
Activity (Staphylococcus aureus [17]): Active | Ratio (Staphylococcus aureus [18]): 50

CCCCCCCCCC(=O)N[C@@H](Cc1c[nH]c2ccccc12)C(=O)N[C@H](CC(N)=O)C(=O)N[C@@H](CC(=O)O)C(=O)N[C@@H]1C(=O)NCC(=O)N[C@@H](CCCN)C(=O)N[C@@H](CC(=O)O)C(=O)N[C@H](C)C(=O)N[C@@H](CC(=O)O)C(=O)NCC(=O)N[C@H](CO)C(=O)N[C@@H]([C@H](C)CC(=O)O)C(=O)N[C@@H](CC(=O)c2ccccc2N)C(=O)O[C@@H]1C
Activity (Staphylococcus aureus [19]): Active

CO[C@H]1/C=C/O[C@@]2(C)Oc3c(C)c(O)c4c(O)c(c(/C=N/N5CCN(C)CC5)c(O)c4c3C2=O)NC(=O)/C(C)=C\C=C\[C@H](C)[C@H](O)[C@@H](C)[C@@H](O)[C@@H](C)[C@H](OC(C)=O)[C@@H]1C
Activity (Staphylococcus aureus [20]): Active
